Laboratory results published in patent publication US9115137B2, “2,3,4,5-tetrahydro-1H-pyrido[4,3-B]indole compounds and methods of use thereof” (priority 2008, dated 2015).

Assays:
[1] = target: T1, human recombinant serotonin (5-Hydroxytryptamine) 5-HT7 receptor (Homo sapiens, UniProt P34969); assay: Serotonin 5-HT7 radioligand binding ([3H]LSD); details: compound at 1 μM; CHO cells; read-out: Serotonin (1 μM) 5-HT7, percent inhibition of specific binding
T1 construct: expressed in transfected cells; host or cells: CHO cells
Method: To evaluate in radioligand binding assays the activity of compounds of the invention, human recombinant serotonin (5-Hydroxytryptamine) 5-HT7 receptor expressed in Chinese hamster ovary (CHO) cells (Roth, B. L. et al., J. Pharmacol. Exp. Ther. 268:1403, 1994; Shen, Y. et al., J. Biol. Chem. 268:18200, 1993) in a modified Tris-HCl buffer (50 mM Tris-HCl, pH 7.4, 10 mM MgCl2, 0.5 mM EDTA) was used. Compounds of invention were incubated with 5.5 nM [^3H] Lysergic acid diethylamide (LSD) for 2 hours at 25° C. Non-specific binding was estimated in the presence of 10 μM Serotonin (5-HT). Receptor proteins were filtered and washed, the filters were then counted to determine [^3H]LSD specifically bound. Compounds were screened at 1 μM or lower, using 1% DMSO as vehicle. Biochemical assay results are presented as the percent inhibition of specific binding in Table 7.

[2] = tested on: rat central imidazoline I2 receptor; assay: Central imidazoline I2 radioligand binding ([3H]Idazoxan); details: compound at 1 μM; Wistar Rat cerebral cortex
Method: To evaluate in radioligand binding assays the activity of compounds of the invention, rat central imidazoline I2 receptor obtained from Wistar Rat cerebral cortex (Brown, C. M. et al., Br. J. Pharmacol. 99:803, 1990) in a modified Tris-HCl buffer (50 mM Tris-HCl buffer, pH 7.4, 0.5 mM EDTA) was used. Compounds of the invention were incubated with 2 nM [^3H]Idazoxan for 30 minutes at 25° C. Non-specific binding was estimated in the presence of 1 μM Idazoxan. Receptor proteins were filtered and washed, the filters were then counted to determine [^3H]Idazoxan specifically bound. Compounds were screened at 1 μM or lower, using 1% DMSO as vehicle. Compounds of the invention were tested in this biochemical assay and percent inhibition of specific binding was determined. Biochemical assay results are presented as the percent inhibition of specific binding in Table 5.

[3] = target: T2, human recombinant serotonin (5-Hydroxytryptamine) 5-HT5A receptor (Homo sapiens, UniProt P47898); assay: Serotonin 5-HT5A radioligand binding ([3H]LSD); details: compound at 1 μM; CHO-K1 cells; read-out: Serotonin (1 μM) 5-HT5A, percent inhibition of specific binding
T2 construct: expressed in transfected cells; host or cells: CHO-K1 cells
Method: To evaluate in radioligand binding assays the activity of compounds of the invention, human recombinant serotonin (5-Hydroxytryptamine) 5-HT5A receptor expressed in Chinese hamster ovary (CHO-K1) cells (Rees, S. et al., FEBS Lett. 355:242, 1994) in a modified Tris-HCl buffer (50 mM Tris-HCl, pH 7.4, 10 mM MgCl2, 0.5 mM EDTA) was used. Compounds of the invention were incubated with 1.7 nM [^3H]Lysergic acid diethylamide (LSD) for 60 minutes at 37° C. Non-specific binding was estimated in the presence of 100 μM Serotonin (5-HT). Receptor proteins were filtered and washed, the filters were then counted to determine [^3H]LSD specifically bound. Compounds were screened at 1 μM or lower, using 1% DMSO as vehicle. Compounds of the invention were tested in this biochemical assay and percent inhibition of specific binding was determined. Biochemical assay results are presented as the percent inhibition of specific binding in Table 7.

[4] = target: T3, rat adrenergic α1B receptor (Rattus norvegicus, UniProt P15823); assay: Adrenergic α1B radioligand binding ([3H]Prozosin); details: compound at 1 μM; Wistar Rat liver; read-out: Adrenergic (1 μM) α1B, percent inhibition of specific binding
T3 construct: obtained from Wistar Rat liver; from tissue; host or cells: Wistar rat liver
T3 sequence (P15823 1-515): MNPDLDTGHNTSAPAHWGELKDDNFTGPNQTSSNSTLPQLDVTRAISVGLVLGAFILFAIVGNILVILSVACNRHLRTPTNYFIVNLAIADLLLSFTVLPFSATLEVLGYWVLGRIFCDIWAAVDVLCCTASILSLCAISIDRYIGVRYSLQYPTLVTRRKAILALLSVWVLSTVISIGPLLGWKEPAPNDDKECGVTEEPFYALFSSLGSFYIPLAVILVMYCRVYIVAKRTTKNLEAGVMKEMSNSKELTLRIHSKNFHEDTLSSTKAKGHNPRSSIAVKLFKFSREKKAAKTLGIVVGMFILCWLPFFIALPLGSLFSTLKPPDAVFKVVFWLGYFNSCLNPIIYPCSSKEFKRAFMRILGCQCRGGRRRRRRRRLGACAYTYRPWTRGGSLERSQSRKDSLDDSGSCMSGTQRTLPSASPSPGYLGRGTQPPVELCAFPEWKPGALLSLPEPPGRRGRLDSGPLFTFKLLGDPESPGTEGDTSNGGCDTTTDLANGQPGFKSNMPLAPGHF
Method: To evaluate in radioligand binding assays the activity of compounds of the invention, rat adrenergic α1B receptor obtained from Wistar Rat liver (Garcia-S'ainz, J. A. et al., Biochem. Biophys. Res. Commun. 186:760, 1992; Michel A. D. et al. Br. J. Pharmacol. 98:883, 1989) in a modified Tris-HCl buffer (50 mM Tris-HCl buffer, pH 7.4, 0.5 mM EDTA) was used. Compounds of the invention were incubated with 0.25 nM [^3H]Prozosin for 60 minutes at 25° C. Non-specific binding was estimated in the presence of 10 μM phentolamine. Receptor proteins were filtered and washed, the filters were then counted to determine [^3H]Prozosin specifically bound. Compounds were screened at 1 μM or lower, using 1% DMSO as vehicle. Compounds of the invention were tested in this biochemical assay and percent inhibition of specific binding was determined. Biochemical assay results are presented as the percent inhibition of specific binding in Table 6.

[5] = target: T4, human recombinant serotonin (5-Hydroxytryptamine) 5-HT2A receptor (Homo sapiens, UniProt P28223); assay: Serotonin 5-HT2A radioligand binding ([3H]Ketanserin); details: compound at 1 μM; CHO-K1 cells; read-out: Serotonin (1 μM) 5-HT2A, percent inhibition of specific binding
T4 construct: expressed in transfected cells; host or cells: CHO-K1 cells
Method: To evaluate in radioligand binding assays the activity of compounds of the invention, human recombinant serotonin (5-Hydroxytryptamine) 5-HT2A receptor expressed in Chinese hamster ovary (CHO-K1) cells (Bonhaus, D. W. et al. Br. J. Pharmacol. 115:622, 1995; Saucier, C. and Albert, P. R., J. Neurochem. 68:1998, 1997) in a 50 mM Tris-HCl buffer, pH 7.4, was used. Compounds of the invention were incubated with 0.5 nM [^3H]Ketanserin for 60 minutes at 25° C. Non-specific binding was estimated in the presence of 1 μM Mianserin. Receptor proteins were filtered and washed, the filters were then counted to determine [^3H] Ketanserin specifically bound. Compounds were screened at 1 μM or lower, using 1% DMSO as vehicle. Biochemical assay results are presented as the percent inhibition of specific binding in Table 7.

T2 sequence (P47898 whole entry): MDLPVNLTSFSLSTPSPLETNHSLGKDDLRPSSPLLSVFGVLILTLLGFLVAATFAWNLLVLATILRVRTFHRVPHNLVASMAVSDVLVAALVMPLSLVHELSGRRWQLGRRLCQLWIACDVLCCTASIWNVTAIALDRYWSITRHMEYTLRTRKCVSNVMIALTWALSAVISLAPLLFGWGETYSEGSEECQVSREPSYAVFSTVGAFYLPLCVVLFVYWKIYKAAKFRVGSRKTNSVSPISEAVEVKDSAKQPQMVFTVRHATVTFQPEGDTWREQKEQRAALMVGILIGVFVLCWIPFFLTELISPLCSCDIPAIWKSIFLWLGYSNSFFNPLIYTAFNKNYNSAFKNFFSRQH
T4 sequence (P28223 whole entry): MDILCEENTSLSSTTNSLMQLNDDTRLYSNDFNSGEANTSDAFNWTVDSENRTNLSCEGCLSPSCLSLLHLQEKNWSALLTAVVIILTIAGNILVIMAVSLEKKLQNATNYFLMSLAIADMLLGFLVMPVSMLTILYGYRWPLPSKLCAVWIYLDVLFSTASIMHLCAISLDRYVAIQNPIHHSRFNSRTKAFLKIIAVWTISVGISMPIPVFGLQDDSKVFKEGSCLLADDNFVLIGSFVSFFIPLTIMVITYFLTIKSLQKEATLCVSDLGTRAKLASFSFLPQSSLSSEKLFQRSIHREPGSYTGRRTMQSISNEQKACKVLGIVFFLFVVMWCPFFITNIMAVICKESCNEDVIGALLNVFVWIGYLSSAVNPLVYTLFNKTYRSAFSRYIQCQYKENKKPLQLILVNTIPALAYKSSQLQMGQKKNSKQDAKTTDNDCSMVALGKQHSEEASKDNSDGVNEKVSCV
T1 sequence (P34969 whole entry): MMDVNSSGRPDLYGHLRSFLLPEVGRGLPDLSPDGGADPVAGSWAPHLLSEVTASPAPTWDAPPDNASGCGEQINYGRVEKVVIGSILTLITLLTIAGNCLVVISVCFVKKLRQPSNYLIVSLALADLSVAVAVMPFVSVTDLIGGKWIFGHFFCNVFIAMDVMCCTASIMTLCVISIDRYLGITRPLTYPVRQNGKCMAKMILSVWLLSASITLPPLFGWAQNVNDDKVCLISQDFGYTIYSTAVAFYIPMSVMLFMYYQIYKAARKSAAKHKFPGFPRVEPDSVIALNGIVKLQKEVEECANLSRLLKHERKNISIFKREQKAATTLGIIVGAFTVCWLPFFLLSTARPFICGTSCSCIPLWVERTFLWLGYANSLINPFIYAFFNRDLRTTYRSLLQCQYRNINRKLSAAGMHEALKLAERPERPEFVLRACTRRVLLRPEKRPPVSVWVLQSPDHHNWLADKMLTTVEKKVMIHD

SMILES	inhibition at 1 µM [1] [%]	Imidazoline I2 Central (1 μM), percent inhibition of specific binding [2] [%]	inhibition at 1 µM [3] [%]	inhibition at 1 µM [4] [%]	inhibition at 1 µM [5] [%]
CCOC(=O)CCn1c2c(c3cc(C)ccc31)CN(C)CC2 [CD1, ethyl 3-(1,2,3,4-tetrahydro-2,8-dimethylpyrido[4,3-b]indol-5-yl)propanoate]	85	55	39	42	89
Cc1ccc2c(c1)c1c(n2CC#N)CCN(C)C1 [CD61, 2-(1,2,3,4-tetrahydro-2,8-dimethylpyrido[4,3-b]indol-5-yl)acetonitrile]	94	60	52	94	77
C#CCn1c2c(c3cc(C)ccc31)CN(C)CC2 [CD73, 2,8-dimethyl-5-(prop-2-ynyl)-2,3,4,5-tetrahydro-1H-pyrido[4,3-b]indole]	91	73	63	84	87
CNC(=O)CCn1c2c(c3cc(C)ccc31)CN(C)CC2 [Compound 1, 3-(1,2,3,4-tetrahydro-2,8-dimethylpyrido[4,3-b]indol-5-yl)-N-methylpropanamide]	33	18	4	13	30
CCNC(=O)CCn1c2c(c3cc(C)ccc31)CN(C)CC2 [Compound 2, N-ethyl-3-(1,2,3,4-tetrahydro-2,8-dimethylpyrido[4,3-b]indol-5-yl)propanamide]	47	8	14	22	22
Cc1ccc2c(c1)c1c(n2CCC(=O)NC2CCCCC2)CCN(C)C1 [Compound 3, N-cyclohexyl-3-(1,2,3,4-tetrahydro-2,8-dimethylpyrido[4,3-b]indol-5-yl)propanamide]	36	27	35	14	63
Cc1ccc2c(c1)c1c(n2CCC(=O)NC2CCCC2)CCN(C)C1 [Compound 4, N-cyclopentyl-3-(1,2,3,4-tetrahydro-2,8-dimethylpyrido[4,3-b]indol-5-yl)propanamide]	59	54	47	41	53
CCOC(=O)CCCn1c2c(c3cc(C)ccc31)CN(C)CC2 [Compound 5, ethyl 4-(1,2,3,4-tetrahydro-2,8-dimethylpyrido[4,3-b]indol-5-yl)butanoate]	95	53	62	77	91
CCNC(=O)CCCn1c2c(c3cc(C)ccc31)CN(C)CC2 [Compound 6, N-ethyl-4-(1,2,3,4-tetrahydro-2,8-dimethylpyrido[4,3-b]indol-5-yl)butanamide]	43	52	25	31	30
Cc1ccc2c(c1)c1c(n2CCNC(=O)OCC(Cl)(Cl)Cl)CCN(C)C1 [Compound 8, 2,2,2-trichloroethyl 2-(1,2,3,4-tetrahydro-2,8-dimethylpyrido[4,3-b]indol-5-yl)ethylcarbamate]	75	57	60	80	99
Cc1ccc2c(c1)c1c(n2CCNC(=O)C2CCCNC2)CCN(C)C1 (stereo not shown) [Compound 9, N-(2-(1,2,3,4-tetrahydro-2,8-dimethylpyrido[4,3-b]indol-5-yl)ethyl)piperidine-3-carboxamide]	-8	9	-6	21	15
